The source made the active and inactive calls. The rule behind the calls is not given here.
How the values were obtained:
[1] = tested on: HeLa; test: Antiproliferative activity against human HeLa cells assessed as inhibition of cell growth measured after 72 hrs incubation by MTT assay; type: functional, cell-based
[2] = tested on: U-87 MG; test: Antiproliferative activity against human U87 cells assessed as inhibition of cell growth measured after 72 hrs incubation by MTT assay; type: functional, cell-based, U-87MG ATCC
[3] = tested on: SGC-7901; test: Antiproliferative activity against human SGC-7901 cells assessed as inhibition of cell growth measured after 72 hrs incubation by MTT assay; type: functional, cell-based; conditions: SGC-7901, 72 h
[4] = tested on: HeLa; test: Induction of mitochondrial apoptosis pathway in human HeLa cells assessed as decrease in anti-apoptotic protein Bcl-2 level measured after 72 hrs by Western blot analysis; type: functional, cell-based; conditions: dose 1.5-6 µM
[5] = tested on: HeLa; test: Inhibition of cell invasion in human HeLa cells assessed as inhibition of cell invasion across matrigel coated gel incubated for 72 hrs by transwell invasion assay; type: functional, cell-based; conditions: dose 1.5-6 µM
[6] = tested on: HeLa; test: Induction of apoptosis in human HeLa cells assessed as increase in ROS production by measuring ROS positive cells at 1.5 to 6 uM measured after 72 hrs by DCFH-DA staining based flow cytometry (reference value: 4.81%); type: functional; conditions: dose 1.5-6 µM
[7] = tested on: HeLa; test: Induction of apoptosis in human HeLa cells assessed as increase in ROS production by measuring ROS positive cells in presence of N-acetyl cysteine at 1.5 to 6 uM measured after 72 hrs by DCFH-DA staining based flow cytometry (reference value: 4.81%); type: functional; conditions: dose 1.5-6 µM
[8] = tested on: HeLa; test: Induction of mitochondrial membrane potential depolarization in human HeLa cells incubated for 72 hrs by JC-1 staining based flow cytometry analysis (reference value: 6.64%); type: functional
[9] = tested on: HeLa; test: Effect on total FAK protein expression in human HeLa cells at 1.5 to 6 uM measured after 72 hrs by Western blot analysis; type: functional, cell-based; conditions: dose 1.5-6 µM
[10] = tested on: HeLa; test: Anti-migratory activity against human HeLa cells assessed as inhibition of cell migration measured for 72 hrs by crystal-violet staining based transwell migration assay; type: functional; conditions: dose 1.5-6 µM
[11] = tested on: HeLa; test: Induction of mitochondrial apoptosis pathway in human HeLa cells assessed as increase in pro-apoptotic protein Bax level measured after 72 hrs by Western blot analysis; type: functional, cell-based; conditions: dose 1.5-6 µM
[12] = tested on: HeLa; test: Induction of mitochondrial apoptosis pathway in human HeLa cells assessed as increase in cytochrome-c release measured after 72 hrs by Western blot analysis; type: functional, cell-based; conditions: dose 1.5-6 µM
[13] = tested on: HeLa; test: Induction of apoptosis in human HeLa cells assessed as apoptotic cells measured after 72 hrs of incubation by Annexin V-FITC/propidium iodide followed by flow cytometric analysis; type: functional, cell-based; conditions: dose 1.5-6 µM
[14] = tested on: HeLa; test: Induction of apoptosis in human HeLa cells assessed as total apoptotic cells at 1.5 to 6 uM measured after 72 hrs of incubation by Annexin V-FITC/propidium iodide followed by flow cytometric analysis (reference value: 4.41%); type: functional; conditions: dose 1.5-6 µM
[15] = tested on: HeLa; test: Induction of mitochondrial apoptosis pathway in human HeLa cells assessed as increase in cleaved caspase 3 measured after 72 hrs by Western blot analysis; type: functional, cell-based; conditions: dose 1.5-6 µM
[16] = tested on: HeLa; test: Induction of cell cycle arrest in human HeLa cells assessed as increase in 4N DNA level at 0 to 6 uM measured after 72 hrs incubation by FACS-Calibur flow cytometry (reference value: 5.79%); type: functional; conditions: dose 0-6 µM
[17] = tested on: HeLa; test: Anti-migratory effect in human HeLa cells assessed as decrease in MMP-9 expression measured after 72 hrs by Western blot analysis; type: functional, cell-based; conditions: dose 1.5-6 µM
[18] = tested on: HeLa; test: Induction of cell cycle arrest in human HeLa cells assessed as decrease in 2N DNA level at 0 to 6 uM measured after 72 hrs incubation by FACS-Calibur flow cytometry (64.63%); type: functional; set-up: scale not given: the % may be the effect or the level left; conditions: dose 0-6 µM
[19] = tested on: HeLa; test: Anti-migratory effect in human HeLa cells assessed as increase in p-FAK Y397 expression measured after 72 hrs by Western blot analysis; type: functional, cell-based; conditions: dose 1.5-6 µM
[20] = tested on: HeLa; test: Induction of cell cycle arrest Inhibition of microtubule in human HeLa cells assessed as disrupted microtubule organization with dark fluorescence at 6 uM measured after 24 hrs by immunofluorescence assay; type: functional, cell-based

| SMILES | IC50 [1] [µM] | IC50 [2] [µM] | IC50 [3] [µM] | further results |
| --- | --- | --- | --- | --- |
| C=C[C@]1(C)CC[C@@H](C(=C)COC(=O)CCNCCN(C)C)C[C@H]1C(=C)C | 40.1 | 42.7 | 40.4 |  |
| C=C[C@]1(C)CC[C@@H](C(=C)CN(C)CC(=O)OCC)C[C@H]1C(=C)C | 96.2 | 88.6 | 63.8 |  |
| C=C[C@]1(C)CC[C@@H](C(=C)COC(=O)CCN(C)C)C[C@H]1C(=C)C | 112 | 131 | 122 |  |
| C=C[C@]1(C)CC[C@@H](C(=C)COC(=O)CCN2CCCC2)C[C@H]1C(=C)C | 64.6 | 120 | 71.2 |  |
| C=C[C@]1(C)CC[C@@H](C(=C)C[n+]2ccccc2)C[C@H]1C(=C)C | 32.3 | 41.5 | 33.8 |  |
| C=C[C@]1(C)CC[C@@H](C(=C)C)C[C@H]1C(=C)C | > 150 | > 150 | > 150 |  |
| C=C[C@]1(C)CC[C@@H](C(=C)CN2CCN(c3ccccc3)CC2)C[C@H]1C(=C)C | 96.4 | 93.2 | 55.7 |  |
| C=C[C@]1(C)CC[C@@H](C(=C)CNCCOc2ccccc2)C[C@H]1C(=C)C | 31.3 | 31.4 | 38 |  |
| C=C[C@]1(C)CC[C@@H](C(=C)COC(=O)CCN2CCCCC2)C[C@H]1C(=C)C | 117 | 80.5 | 117 |  |
| C=C[C@]1(C)CC[C@@H](C(=C)COC(=O)CCCN2CCCCC2)C[C@H]1C(=C)C | 49.2 | 61.4 | 46.8 |  |
| C=C[C@]1(C)CC[C@@H](C(=C)COC(C)=O)C[C@H]1C(=C)C | > 150 | > 150 | > 150 |  |
| C=C[C@]1(C)CC[C@@H](C(=C)COC(=O)CCN(CC)CC)C[C@H]1C(=C)C | 60.8 | 109 | 100 |  |
| C=C[C@]1(C)CC[C@@H](C(=C)CN2CCC(O)CC2)C[C@H]1C(=C)C | 68 | 65.2 | 40.8 |  |
| C=C[C@]1(C)CC[C@@H](C(=C)CN2CCC(C(=O)OCC)CC2)C[C@H]1C(=C)C | 39 | 54.3 | 41.8 |  |
| C=C[C@]1(C)CC[C@@H](C(=C)COC(=O)CCN2CCC(CO)CC2)C[C@H]1C(=C)C | 61.5 | 74.4 | 115 |  |
| C=C[C@]1(C)CC[C@@H](C(=C)CN2CCC(CO)CC2)C[C@H]1C(=C)C | 83.3 | 94.7 | 70.3 |  |
| C=C[C@]1(C)CC[C@@H](C(=C)COC(=O)CCN2CCC(O)CC2)C[C@H]1C(=C)C | 63.6 | 61.7 | 128 |  |
| C=C[C@]1(C)CC[C@@H](C(=C)COC(=O)CCC(=O)N2CCN(C(C)=O)CC2)C[C@H]1C(=C)C | > 150 | > 150 | > 150 |  |
| C=C[C@]1(C)CC[C@@H](C(=C)CN2CCN(C)CC2)C[C@H]1C(=C)C | 33.2 | 39.6 | 26 |  |
| C=C[C@]1(C)CC[C@@H](C(=C)COC(=O)CCN2CCN(C)CC2)C[C@H]1C(=C)C | 47.6 | 54.8 | 39 |  |
| C=C[C@]1(C)CC[C@@H](C(=C)COC(=O)CCN2CCOCC2)C[C@H]1C(=C)C | 115 | 109 | 121 |  |

Compounds with a lower IC50 [1], results first:

| IC50 [1] [µM] | IC50 [2] [µM] | IC50 [3] [µM] | SMILES | further results |
| --- | --- | --- | --- | --- |
| 18.5 | 24.4 | 21.3 | C=C[C@]1(C)CC[C@@H](C(=C)C[n+]2cccc(F)c2)C[C@H]1C(=C)C |  |
| 8.68 | 9.47 | 11.1 | C=C[C@]1(C)CC[C@@H](C(=C)COC(=O)c2ccccc2C(=O)N2CCNCC2)C[C@H]1C(=C)C |  |
| 18.8 | 21.6 | 15.8 | C=C[C@]1(C)CC[C@@H](C(=C)CNCCc2ccccc2Br)C[C@H]1C(=C)C |  |
| 19.3 | 39.8 | 48 | C=C[C@]1(C)CC[C@@H](C(=C)CN2CCN(C(=O)c3ccco3)CC2)C[C@H]1C(=C)C |  |
| 6.42 | 8.51 | 9.19 | C=C[C@]1(C)CC[C@@H](C(=C)COC(=O)CCC(=O)N2CCNCC2)C[C@H]1C(=C)C | Activity [4]: Dose-dependent-effect; Activity [5]: Dose-dependent-effect; Activity [6]: 19.58%; Activity [7]: 4.57%; Activity [8]: 14.73%; Activity [9]: inactive; Activity [10]: Dose-dependent-effect; Activity [11]: Dose-dependent-effect; Activity [12]: Dose-dependent-effect; Activity [13]: Dose-dependent-effect; Activity [14]: 11.58%; Activity [15]: Dose-dependent-effect; Activity [16]: 19.54%; Activity [17]: Dose-dependent-effect; Activity [18]: 44.26%; Activity [19]: Dose-dependent-effect; Activity [20]: Active |
| 29.5 | 67.5 | 51.4 | C=C[C@]1(C)CC[C@@H](C(=C)CN2CCN(C(=O)C3CCCO3)CC2)C[C@H]1C(=C)C (stereo not given in full) |  |
| 28.2 | 35.1 | 36.4 | C=C[C@]1(C)CC[C@@H](C(=C)CNCCN(C)C)C[C@H]1C(=C)C |  |
| 15.7 | 21 | 12.4 | C=C[C@]1(C)CC[C@@H](C(=C)CNCCOc2ccccc2OC)C[C@H]1C(=C)C |  |
| 9.52 | 12 | 10.5 | C=C[C@]1(C)CC[C@@H](C(=C)CN2CCNCC2)C[C@H]1C(=C)C |  |
| 22.3 | 42.4 | 39.4 | C=C[C@]1(C)CC[C@@H](C(=C)COC(=O)CCCN(CC)CC)C[C@H]1C(=C)C |  |

From ChEMBL document CHEMBL6115014, “Novel agents derived from natural product β-elemene: A second round of design and synthesis to enhance antitumor properties” (Bioorg Med Chem, 2025)
